Data reported in PubChem BioAssay (NCI).
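Here, GI50 denotes the concentration required for 50% inhibition of growth. TGI denotes the concentration required for complete inhibition of growth.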

Tests used:
Assay in all cases: DTP human tumour cell line panel, 384-well format
[1] = system: 786-0 renal
[2] = system: A498 renal
[3] = system: A549 NSCLC
[4] = system: BT-549 breast
[5] = system: CAKI-1 renal
[6] = system: CCRF-CEM leukemia
[7] = system: EKVX NSCLC
[8] = system: HCC-2998 colon
[9] = system: HCT-116 colon
[10] = system: HCT-15 colon
[11] = system: HL-60(TB) leukemia
[12] = system: HOP-62 NSCLC
[13] = system: HOP-92 NSCLC
[14] = system: IGROV1 ovarian
[15] = system: K-562 leukemia
[16] = system: KM12 colon
[17] = system: LOX IMVI melanoma
[18] = system: M14 melanoma
[19] = system: MALME-3M melanoma
[20] = system: MCF7 breast
[21] = system: MDA-MB-231 breast
[22] = system: MOLT-4 leukemia
[23] = system: NCI-H226 lung
[24] = system: NCI-H23 lung

Compound `[2H]c1nc(C)nc([2H])c1-c1cc(NC[C@@H](C)c2cccc3c(C(=O)NC)ccnc23)ncn1` has a GI50 [1] greater than 100 µM, a TGI [1] greater than 100 µM and a GI50 [2] greater than 100 µM. The TGI [2] was greater than 100 µM, the GI50 [3] was greater than 100 µM and the TGI [3] was greater than 100 µM. For the same compound, the GI50 [4] was greater than 100 µM, the TGI [4] was greater than 100 µM and the GI50 [5] was greater than 100 µM. For the same compound, the TGI [5] was greater than 100 µM, the GI50 [6] was greater than 100 µM and the TGI [6] was greater than 100 µM. The GI50 [7] was greater than 100 µM, the TGI [7] was greater than 100 µM and the GI50 [8] was greater than 100 µM. For the same compound, the TGI [8] was greater than 100 µM, the GI50 [9] was greater than 100 µM and the TGI [9] was greater than 100 µM. For the same compound, the GI50 [10] was greater than 100 µM, the TGI [10] was greater than 100 µM and the GI50 [11] was 55.8 µM. The TGI [11] was greater than 100 µM, the GI50 [12] was greater than 100 µM and the TGI [12] was greater than 100 µM. For the same compound, the GI50 [13] was greater than 100 µM, the TGI [13] was greater than 100 µM and the GI50 [14] was greater than 100 µM. It also gave a TGI [14] greater than 100 µM, a GI50 [15] of 48.1 µM and a TGI [15] greater than 100 µM. It also gave a GI50 [16] greater than 100 µM, a TGI [16] greater than 100 µM and a GI50 [17] greater than 100 µM. For the same compound, the TGI [17] was greater than 100 µM, the GI50 [18] was greater than 100 µM and the TGI [18] was greater than 100 µM. The GI50 [19] was greater than 100 µM, the TGI [19] was greater than 100 µM and the GI50 [20] was greater than 100 µM. The TGI [20] was greater than 100 µM, the GI50 [21] was greater than 100 µM and the TGI [21] was greater than 100 µM. For the same compound, the GI50 [22] was greater than 85.7 µM, the TGI [22] was greater than 100 µM and the GI50 [23] was greater than 100 µM. It also gave a TGI [23] greater than 100 µM and a GI50 [24] greater than 100 µM.
